From US5021431A, “Imidazolyl alkyl guanidine derivatives, processes for their preparation and pharmaceutical preparations containing these compounds” (Heumann Pharma GmbH & Co., priority 1985, dated 1991)
Where a name gives a salt, the structure may show the parent alone. Read-outs that look alike come from different tables or passages of the source.

Columns and labels:
histamine-H2 receptors = target: T1, histamine-H2 receptors (Cavia porcellus, UniProt P47747); assay: cell-based; set-up: species or system guinea-pig
T1 construct: determined on the isolated atrium or ileum of the guinea-pig; from tissue; host or cells: isolated right atrium of the guinea-pig
Text: For determining the H2 -agonistic activity (pD2 -values), use is made of the method according to J. M. VAN ROSSUM, (1963), Cumulative dose-response curves, II, Technique for the making of dose-response curves in isolated organs and the evaluation of drug parameters, Arch. Int. Pharmacodyn. Ther. 143, 299-307.
(§1) Pharmacological Data (determined on the isolated atrium or ileum of the guinea-pig)
(§2) The values listed below represent the H2 -agonistic (pD2) and H1 -antagonistic (pA2) effect of the dual active compounds

H1 receptor = H1 receptor (Cavia porcellus, UniProt P31389); assay: cell-based; conditions: isolated ileum of the guinea pig; for Kb: read-out: pA2 ileum (H1-antagonistic effect) (converted)
Text: The new class of structures according to the invention has both an H1 -antagonistic and an H2 -agonistic active component. […] One recognized method for determining H1 -antagonistic activity is the determination of the pA2 -values in vitro (O. ARUNLAKSHANA and H. O. SCHILD (1959) Some quantitative uses of drug antagonists--Br. J. Pharmacol. Chemother. 14, 48-58).
as §1, §2

[1] = isolated right atrium of the guinea pig, read-out: pD2 right atrium (H2-agonistic effect) (converted)
[2] = isolated right atrium of the guinea pig

Sequence of H1 receptor (P31389 whole entry): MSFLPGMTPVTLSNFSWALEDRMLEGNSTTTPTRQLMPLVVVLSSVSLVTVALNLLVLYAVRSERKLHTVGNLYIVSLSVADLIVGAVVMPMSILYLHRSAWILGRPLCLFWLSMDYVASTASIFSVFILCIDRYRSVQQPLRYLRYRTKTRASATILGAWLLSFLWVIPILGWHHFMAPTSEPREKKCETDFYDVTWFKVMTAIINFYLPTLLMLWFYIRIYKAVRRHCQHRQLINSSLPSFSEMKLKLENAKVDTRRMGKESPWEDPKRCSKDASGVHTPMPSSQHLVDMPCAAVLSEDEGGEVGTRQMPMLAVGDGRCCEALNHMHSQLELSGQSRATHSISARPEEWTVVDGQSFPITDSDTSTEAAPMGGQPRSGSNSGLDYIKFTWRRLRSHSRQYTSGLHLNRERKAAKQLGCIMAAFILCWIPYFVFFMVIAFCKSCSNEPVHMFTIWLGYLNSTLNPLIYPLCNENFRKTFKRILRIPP
T1 sequence (P47747 whole entry): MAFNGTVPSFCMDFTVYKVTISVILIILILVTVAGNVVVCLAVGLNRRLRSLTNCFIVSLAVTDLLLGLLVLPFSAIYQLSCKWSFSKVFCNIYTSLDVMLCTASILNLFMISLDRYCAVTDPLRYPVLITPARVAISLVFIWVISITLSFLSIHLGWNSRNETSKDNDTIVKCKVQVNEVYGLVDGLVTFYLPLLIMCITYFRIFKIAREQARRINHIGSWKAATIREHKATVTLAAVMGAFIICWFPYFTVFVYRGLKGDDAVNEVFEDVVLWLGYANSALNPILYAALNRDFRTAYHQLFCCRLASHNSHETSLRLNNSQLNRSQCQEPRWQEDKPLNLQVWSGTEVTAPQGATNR

| Compound | EC50 (histamine-H2 receptors; [1]) [nM] | Kb (H1 receptor) [nM] | pA2 ileum (H1-antagonistic effect) (H1 receptor) | pD2 right atrium (H2-agonistic effect) (histamine-H2 receptors; [2]) | EC50 (histamine-H2 receptors) [nM] |
| --- | --- | --- | --- | --- | --- |
| Cc1ccc(N(C)CCCNC(=N)NCCCc2c[nH]cn2)nc1 [Example 10, N^1-[3-[N-(5-Methyl-pyridin-2-yl)-methylamino]propyl]-N^2-[3-(1H-imidazol-4-yl)propyl]guanidine trihydrochloride] | 891 | 112 |  |  |  |
| N=C(NCCCCc1cccnc1)NCCCc1c[nH]cn1 [Example 12, N^1-[4-(Pyridin-3-yl)butyl]-N^2-[3-(1H-imidazol-4-yl)propyl]guanidine trihydrochloride] | 200 | 562 |  |  |  |
| Cc1[nH]c(CN(C)C)nc1CSCCNC(=N)NCCCc1c[nH]cn1 [Example 51, N-[2-[(2-Dimethylaminomethyl-5-methylimidazol-4-yl)methylthio]ethyl]-N'-[3-(imidazol-4-yl)propyl]-guanidine] | 67.6 | 3160 |  |  |  |
| CC(SCCNC(=N)NCCCc1c[nH]cn1)c1ccccc1 (stereo not drawn) [Example 60, N-[3-(Imidazol-4-yl)propyl]-N'-[2-[(1-phenylethyl)thio]ethyl]-guanidine] | 288 | 2290 |  |  |  |
| Cc1ccc(C(SCCNC(=N)NCCCc2c[nH]cn2)c2ccccc2)cc1 (stereo not drawn) [Example 62, N-[3-(Imidazol-4-yl)propyl]-N'-[2-[(p-methyl-α-phenylbenzyl)thio]ethyl]-guanidine] | 3890 | 11500 |  |  |  |
| N=C(NCCCc1c[nH]cn1)NCCC(c1ccccc1)c1ccccc1 [Example 78, N-[3-(Imidazol-4-yl)propyl]-N'-(3.3-diphenylpropyl)-guanidine] | 67.6 | 63.1 | 7.20 |  |  |
| Cc1[nH]cnc1CCCNC(=N)NCCC(c1ccccc1)c1ccccc1 [Example 96, N-[3-(5-Methylimidazol-4-yl)propyl]-N'-(3,3-diphenylpropyl)-guanidine] | 126 | 126 | 6.9 |  |  |
| N=C(NCCCc1c[nH]cn1)NCCN(Cc1ccccc1)c1ccccc1 [Example 101, N^1-[3-(4-Imidazolyl)propyl]-N^2-[2-(N-benzyl-N-phenylamino)-ethyl]-guanidine trihydrochloride] |  |  | 7.41 | 6.15 |  |
| N=C(NCCCc1c[nH]cn1)NCCN(Cc1ccccc1)c1ccc(F)cc1 [Example 102, N^1-[3-(4-Imidazolyl)propyl]-N^2-[2-(N-benzyl-N-(4-fluorophenyl)amino)ethyl]-guanidine trihydrochloride] | 234 | 25.1 |  |  |  |
| N=C(NCCCc1c[nH]cn1)NCCN(Cc1ccccc1)c1ccc(Br)cc1 [Example 104, N^1-[3-(4-Imidazolyl)propyl]-N^2-[2-(N-benzyl-N-(4-bromophenyl)amino)ethyl]-guanidine trihydrochloride] | 6920 | 57.5 |  |  |  |
| N=C(NCCCc1c[nH]cn1)NCCSCc1cccs1 [Example 105, N-[3-(Imidazol-4-yl)propyl]-N'-[2-(2-thenylthio)ethyl]-guanidine] |  | 1230 |  |  | 51.3 |
| N=C(NCCCc1c[nH]cn1)NCCSC(c1ccccc1)c1ccccn1 (stereo not drawn) [Example 123, N-[3-(Imidazol-4-yl)propyl]-N'-[2-[(phenyl(pyrid-2-yl)methyl)thio]ethyl]-guanidine] | 224 |  | 7.0 |  |  |
| N=C(NCCCc1c[nH]cn1)NCCC(c1ccccc1)c1ccccn1 (stereo not drawn) [Example 127] | 39.8 | 52.5 | 7.28 | 7.4 |  |
| N=C(NCCCc1c[nH]cn1)NCCC(c1ccc(Cl)cc1)c1ccccn1 (stereo not drawn) [Example 129, N-[3-(4-Chlorophenyl)-3-(pyrid-2-yl)propyl]-N'-[3-(imidazol-4-yl)propyl]-guanidine] | 63.1 | 31.6 |  |  |  |
| NC(=NCCC(c1ccc(F)cc1)c1ccccn1)NCCCc1cnc[nH]1 (stereo not drawn) [Example 133, N-[3-(4-Fluorophenyl)-3-(pyrid-2-yl)propyl]-N'-[3-(imidazol-4-yl)propyl]-guanidine] | 12.6 | 31.6 |  |  |  |
| N=C(NCCCc1c[nH]cn1)NCCC(c1ccccn1)c1cccs1 (stereo not drawn) [Example 134, N-[3-(Imidazol-4-yl)propyl]-N'-[3-(pyrid-2-yl)-3-(2thienyl)propyl]-guanidine] | 93.3 | 50.1 |  |  |  |
| N=C(NCCCc1c[nH]cn1)NCCCC(c1ccccc1)c1ccccn1 (stereo not drawn) [Example 136, N-[3-(Imidazol-4-yl)propyl]-N'-[4-phenyl-4-(pyrid-2-yl)butyl]-guanidine] | 112 |  | 6.6 |  |  |
| NC(=NCCN(Cc1ccccc1)c1ccccn1)NCCCc1c[nH]cn1 [Example 140, N^1-[3-(4-imidazolyl)propyl]-N^2-[2-(N-benzyl-N-(pyrid-2-yl)-amino)ethyl]-guanidine trihydrochloride] | 1260 | 8.91 |  |  |  |
| COc1ccc(CN(CCN=C(N)NCCCc2c[nH]cn2)c2ccccn2)cc1 [Example 142, N^1-[3-(1H-Imidazol-4-yl)propyl]-N2-[2-[N-(4-methoxybenzyl)-N-(pyridin-2-yl)-amino]ethyl]-guanidine] | 1580 | 8.32 |  |  |  |
| Cc1cc(Br)cnc1N(CCNC(=N)NCCCc1c[nH]cn1)Cc1ccccc1 [Example 144, N^1-[2-[N-(5-Bromo-3-methyl-pyridin-2-yl)-benzylamino]ethyl]-N^2-[3-(1H-imidazol-4-yl)propyl]-guanidine trihydrochloride] | 6030 | 398 |  |  |  |
| N=C(NCCCc1c[nH]cn1)NCCN(c1ccc(F)cc1)c1ccccn1 [Example 148, N^1-[3-(Imidazol-4-yl)propyl]-N^2-[2-(N-(2-pyridyl)N-(4-fluorophenyl)amino)ethyl]-guanidine trihydrochloride] | 316 | 15.8 |  |  |  |

Now from value to molecule, other results behind:

| EC50 (histamine-H2 receptors; [1]) [nM] | Kb (H1 receptor) [nM] | pA2 ileum (H1-antagonistic effect) (H1 receptor) | pD2 right atrium (H2-agonistic effect) (histamine-H2 receptors; [2]) | Compound | EC50 (histamine-H2 receptors) [nM] |
| --- | --- | --- | --- | --- | --- |
| 1200 | 3.24 |  |  | Cc1cc(Br)cnc1CCCCNC(=N)NCCCc1c[nH]cn1 [Example 17, N^1-[4-(5-Bromo-3-methyl-pyridin-2-yl)butyl]-N^2 [3-(1H-imidazol-4-yl)propyl]-guanidine trihydrochloride] |  |
| 200 | 158 |  |  | N=C(NCCCc1c[nH]cn1)NCCCC(c1ccccc1)c1ccccc1 [Example 97, N-[3-(Imidazol-4-yl)propyl]-N'(4,4-diphenylbutyl)-guanidine] |  |
| 2690 | 29.5 |  |  | N=C(NCCCc1c[nH]cn1)NCCN(Cc1ccccc1)c1ccc(Cl)cc1 [Example 103, N^1-[3-(4-Imidazolyl)propyl]-N^2-[2-(N-benzyl-N-(4-chlorophenyl)amino)ethyl]-guanidine trihydrochloride] |  |
| 51.3 | 2000 |  |  | CC(CSCc1ccccn1)NC(=N)NCCCc1c[nH]cn1 (stereo not drawn) [Example 121, N-[3-(Imidazol-4-yl)propyl]-N'-[1-methyl-2-[(pyrid-2-yl)methylthio]-ethyl]-guanidine] |  |
| 83.2 | 316 |  |  | N=C(NCCCc1c[nH]cn1)NCCC(c1ccc(Br)cc1)c1ccccn1 (stereo not drawn) [Example 131, N-[3-(4-Bromophenyl)-3-(pyrid-2-yl)propyl]-N'-[3-(imidazol-4-yl)propyl]-guanidine] |  |
| 1000 | 12.3 |  |  | N=C(NCCCc1c[nH]cn1)NCCN(Cc1ccc(Cl)cc1)c1ccccn1 [Example 141, N^1-[3-(1H-Imidazol-4-yl)propyl]-N^2-[2-[N-(4-chlorobenzyl) N-(pyridin-2-yl).amino]ethyl]-guanidine] |  |
| 1950 | 2.57 |  |  | NC(=NCCN(Cc1ccc(F)cc1)c1ccccn1)NCCCc1c[nH]cn1 [Example 143, N^1-[3-(1H-Imidazol-4-yl)propyl]-N^2-[2-[N-(4-fluorobenzyl)-N-(pyridin-2-yl)-amino]ethyl]-guanidine] |  |
| 6030 | 398 |  |  | N=C(NCCCc1c[nH]cn1)NCCN(c1ccccc1)c1ccccc1 [Example 145, N^1-[3-(Imidazol-4-yl)propyl]-N^2-[2-(diphenylamino)ethyl]-guanidine trihydrochloride] |  |
| 1100 | 1000 |  |  | N=C(NCCCc1c[nH]cn1)NCCN(c1ccccc1)c1ccc(F)cc1 [Example 146, N^1-[3-(Imidazol-4-yl)propyl]-N^2-[2-N-(phenyl-N(4-fluorophenyl)amino)ethyl]-guanidine trihydrochloride] |  |
| 100 | 126 |  |  | N=C(NCCCc1c[nH]cn1)NCCN(c1ccccc1)c1ccccn1 [Example 147, N^1-[3-(Imidazol-4-yl)propyl]-N^2-[2-(N-(2-pyridyl)-N-phenylamino)ethyl]-guanidine trihydrochloride] |  |
